According to patent US11352350B2, “IRAK degraders and uses thereof” (Kymera Therapeutics, Inc., priority 2018, dated 2022):
pIC50: −log10 of the molar value. Read-outs that look alike come from different tables or passages of the source.

Experiments:
OCI-LY10 = experiment: CTG Cell Viability Assay - OCI-LY10; assay type: cell-based, human; conditions: Homo sapiens, OCI-LY10, 4 days, read-out: CTG Cell Viability Assay - OCI-LY10: Average external-IC50
Procedure, shortened: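 Viability read by CellTiter-Glo luminescence after 4 days at 37° C under 5% CO2 with compound (top 10 μM final, 1:3 steps, 9 doses, DMSO 0.2%). Three-parameter logistic fit gave IC50.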

IRAK4 = IRAK4 (Homo sapiens (Human), UniProt Q9NWZ3); experiment: IRAK4 MSD degradation in OCI-LY10; assay type: cell-based
Chain of IRAK4 (Q9NWZ3 whole entry): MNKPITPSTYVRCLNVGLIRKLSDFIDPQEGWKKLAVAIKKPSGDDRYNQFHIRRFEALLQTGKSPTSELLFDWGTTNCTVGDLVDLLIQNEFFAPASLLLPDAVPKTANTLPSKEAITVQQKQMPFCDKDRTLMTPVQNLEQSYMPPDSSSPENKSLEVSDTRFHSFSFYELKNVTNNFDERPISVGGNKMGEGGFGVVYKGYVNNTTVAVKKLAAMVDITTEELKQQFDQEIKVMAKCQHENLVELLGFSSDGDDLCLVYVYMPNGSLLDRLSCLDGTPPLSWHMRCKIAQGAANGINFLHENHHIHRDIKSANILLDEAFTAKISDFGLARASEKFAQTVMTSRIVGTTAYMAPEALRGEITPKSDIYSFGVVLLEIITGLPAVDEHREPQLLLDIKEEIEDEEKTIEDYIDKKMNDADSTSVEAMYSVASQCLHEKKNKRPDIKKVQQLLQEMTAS
Procedure, shortened: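 Remaining IRAK4 quantified by electrochemiluminescent MSD sandwich assay with two anti-IRAK4 antibodies. Compounds were dosed as 8 concentrations in 1:3 steps from a 1 to 10 μM final top on OCI-LY10 cells, incubated 4 to 24 h at 37° C. under 5% CO2. DC50 fitted with a three-parameter logistic curve.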

[1] = OCI-LY10, 4 hrs, MSD, read-out: IRAK4 MSD degradation in OCI-LY10 at 4 hrs: Average external-Abs DC50
[2] = OCI-LY10, 4 hrs, read-out: IRAK4 MSD degradation in OCI-LY10 at 4 hrs: DC50
[3] = OCI-LY10, 24 hrs, MSD, read-out: IRAK4 MSD degradation in OCI-LY10 at 24 hrs: Average external-Abs DC50
[4] = OCI-LY10, 24 hrs, read-out: IRAK4 MSD degradation in OCI-LY10 at 24 hrs: DC50

Row | SMILES | pIC50 (OCI-LY10; OCI-Ly10, 96 h) | DC50 (IRAK4; [1]) [nM] | DC50 (IRAK4; [2]) [nM] | DC50 (IRAK4; [3]) [nM] | DC50 (IRAK4; [4]) [nM] | pIC50 (OCI-LY10; 96 h)
1 | CN(CCCNc1cccc2c1C(=O)N(C1CCC(=O)NC1=O)C2=O)C1CCN(C[C@H]2CC[C@H](n3cc(NC(=O)c4cnn5ccc(N6CCOCC6)nc45)c(C(F)F)n3)CC2)CC1 (stereo partly drawn) [I-231] | > 7.30 | 10 to 100 |  |  |  | 
2 | Cn1c(=O)n(C2CCC(=O)NC2=O)c2ccc(CN3CCC(CC(=O)N4CCC(n5cc(NC(=O)c6coc(-c7ccnc(NCC8CC8)c7)n6)c(C(F)F)n5)CC4)CC3)cc21 (stereo not drawn) [I-148] | 6.30 to 7.00 | 100 to 1000 |  |  |  | 
3 | CN(C[C@H]1CC[C@H](n2cc(NC(=O)c3coc(-c4ccnc(NCC5CC5)c4)n3)c(C(F)F)n2)CC1)C1CN(Cc2cccc3c2n(C)c(=O)n3C2CCC(=O)NC2=O)C1 (stereo partly drawn) [I-240] | < 6.00 | < 10 |  |  |  | 
4 | CN1C(=O)CCC(N2C(=O)c3cccc(NCCCOC4CCN(C[C@H]5CC[C@H](n6cc(NC(=O)c7cnn8ccc(N9CCOCC9)nc78)c(C(F)F)n6)CC5)CC4)c3C2=O)C1=O (stereo partly drawn) [I-368] | < 6.00 | > 1000 |  |  |  | 
5 | O=C1CCC(N2C(=O)c3cccc(NCC4CC5(C4)CN(C[C@H]4CC[C@H](n6cc(NC(=O)c7cnn8ccc(N9C[C@H]%10C[C@@H]9CO%10)nc78)c(C(F)F)n6)CC4)C5)c3C2=O)C(=O)N1 (stereo partly drawn) [I-461] | > 7.30 |  | 100 to 1000 |  |  | 
6 | O=C1CCC(N2C(=O)c3cccc(NCCCOC[C@@H]4CN(C[C@H]5CC[C@H](n6cc(NC(=O)c7cnn8ccc(N9C[C@H]%10C[C@@H]9CO%10)nc78)c(C(F)F)n6)CC5)CCO4)c3C2=O)C(=O)N1 (stereo partly drawn) [I-352] | 6.00 to 6.30 | > 1000 |  | 10 to 100 |  | 
7 | CN(C[C@H]1CC[C@H](n2cc(NC(=O)c3cnn4ccc(N5C[C@H]6CC5CO6)nc34)c(C(F)F)n2)CC1)C1CCC2(CC1)CC(Nc1cccc3c1C(=O)N(C1CCC(=O)NC1=O)C3=O)C2 (stereo partly drawn) [I-454] | 7.00 to 7.30 |  | 100 to 1000 |  | 10 to 100 | 
8 | CN[C@@H](C)C(=O)N[C@H](C(=O)N1Cc2cc(OCCOCCOCCOCCNC[C@H]3CC[C@H](n4cc(NC(=O)c5coc(-c6ccnc(NCC7CC7)c6)n5)c(C(F)F)n4)CC3)ccc2C[C@H]1C(=O)N[C@@H]1CCCc2ccccc21)C(C)(C)C [I-390] |  | > 1000 |  |  |  | < 6.00
9 | CC[C@H]1C(COc2ncc(C#C[C@H]3CC[C@H](CN(C)CCN4CCO[C@H](CCNc5cccc6c5C(=O)N(C5CCC(=O)NC5=O)C6=O)C4)CC3)c3cc(C(N)=O)c(OC)cc23)NC(=O)[C@H]1F (stereo partly drawn) [I-334] | 6.30 to 7.00 | 100 to 1000 |  |  |  | 
10 | CC[C@@H]1[C@H](F)C(=O)N[C@@H]1COc1ncc(C#C[C@H]2CC[C@@H](CN(C)CCCOCCCc3ccc4c(c3)n(C)c(=O)n4C3CCC(=O)NC3=O)CC2)c2cc(C(N)=O)c(OC)cc12 (stereo partly drawn) [I-230] | < 6.00 | 100 to 1000 |  | 100 to 1000 |  | 
11 | CN(C[C@H]1CC[C@H](n2cc(NC(=O)c3cnn4ccc(N5CCOCC5)nc34)c(C(F)F)n2)CC1)[C@H]1C[C@H](Nc2cccc3c2C(=O)N(C2CCC(=O)NC2=O)C3=O)C1 (stereo partly drawn) [I-458] | < 6.00 |  | 100 to 1000 |  | > 1000 | 
12 | CN(CCOCCOCCOC12CC3CC(CC(C3)C1)C2)C[C@H]1CC[C@H](n2cc(NC(=O)c3cnn4ccc(N5CCNCC5)nc34)c(C(F)F)n2)CC1 [I-175] | < 6.00 | > 1000 |  | > 1000 |  | 
13 | Cn1c(=O)n(C2CCC(=O)NC2=O)c2ccc(CCCOCCC(=O)N3CCN([C@H]4CC[C@H](Nc5ncnc6[nH]cc(C7CCOCC7)c56)CC4)CC3)cc21 (stereo partly drawn) [I-21] | 6.00 to 6.30 | > 1000 |  | > 1000 |  | 
14 | CN1C(=O)CCC(N2C(=O)c3cccc(NCCCOCCCS(=O)(=O)N(C)C(=O)[C@H]4CC[C@H](n5cc(NC(=O)c6cnn7ccc(N8C[C@H]9C[C@@H]8CO9)nc67)c(C(F)F)n5)CC4)c3C2=O)C1=O (stereo in doubt) [I-490, N-[3-(difluoromethyl)-1-[4-[methyl-[3-[3-[[2-(1-methyl-2,6-dioxo-3-piperidyl)-1,3-dioxo-isoindolin-4-yl]amino]propoxy]propylsulfonyl]carbamoyl]cyclohexyl]pyrazol-4-yl]-5-(2-oxa-5-azabicyclo [2.2.1]heptan-5-yl)pyrazolo [1,5-a]pyrimidine-3-carboxamide] | < 6.00 |  | 100 to 1000 |  | > 1000 | 
15 | Cn1c(=O)n(C2CCC(=O)NC2=O)c2cccc(CN3CCC(CCN4CCC(n5cc(NC(=O)c6cnn7ccc(N8CCOCC8)nc67)c(C(F)F)n5)CC4)CC3)c21 (stereo not drawn) [I-177] | 6.30 to 7.00 | < 10 |  |  |  | 
16 | COc1cc(C(=O)N2CCC(CCCN(C)C[C@H]3CC[C@H](n4cc(NC(=O)c5coc(-c6ccnc(NCC7CC7)c6)n5)c(C(F)F)n4)CC3)CC2)ccc1NC(=O)[C@@H]1N[C@@H](CC(C)(C)C)[C@](C#N)(c2ccc(Cl)cc2F)[C@H]1c1cccc(Cl)c1F [I-141] | < 6.00 | > 1000 |  | > 1000 |  | 
17 | CN[C@@H](C)C(=O)N[C@H](C(=O)N1CCC[C@H]1c1nc(C(=O)c2cccc(OCCOCCOCCOCCOCCNC[C@H]3CC[C@H](n4cc(NC(=O)c5coc(-c6ccnc(NCC7CC7)c6)n5)c(C(F)F)n4)CC3)c2)cs1)C1CCCCC1 [I-274] | 6.00 to 6.30 | 100 to 1000 |  | 100 to 1000 |  | 
18 | Cn1c(=O)n(C2CCC(=O)NC2=O)c2cccc(CN3CC4(CCN(C[C@H]5CC[C@H](n6cc(NC(=O)c7cnn8ccc(N9CCOCC9)nc78)c(C(F)F)n6)CC5)CC4)C3)c21 (stereo partly drawn) [I-233] | 6.30 to 7.00 | < 10 |  |  |  | 
19 | CN(C(=O)c1cnn2ccc(N3CCOCC3)nc12)c1cn([C@H]2CC[C@H](CN3CCC(OCCCNc4cccc5c4C(=O)N(C4CCC(=O)NC4=O)C5=O)CC3)CC2)nc1C(F)F (stereo partly drawn) [I-501] | 7.00 to 7.30 |  | > 1000 |  | > 1000 | 
20 | O=C1CCC(N2C(=O)c3cccc(NCCOC4CCN(C[C@H]5CC[C@H](n6cc(NC(=O)c7cnn8ccc(N9C[C@H]%10C[C@@H]9CO%10)nc78)c(C(F)F)n6)CC5)CC4)c3C2=O)C(=O)N1 (stereo partly drawn) [I-299] | 7.00 to 7.30 | 10 to 100 |  |  |  | 
21 | Cn1c(=O)n(C2CCC(=O)NC2=O)c2cccc(CCCOCCCN3CCN([C@H]4CC[C@H](Nc5ncnc6ccc(CC#N)cc56)CC4)CC3)c21 (stereo partly drawn) [I-269] | < 6.00 | > 1000 |  | > 1000 |  | 
22 | Cc1ncsc1-c1ccc(CNC(=O)[C@@H]2C[C@@H](O)CN2C(=O)[C@@H](NC(=O)COCCOCCOCC(=O)N2CCN([C@H]3CC[C@H](Nc4ncnc5cc(CC#N)ccc45)CC3)CC2)C(C)(C)C)cc1 [I-50] | < 6.00 | > 1000 |  |  |  | 
23 | CC[C@@H]1[C@H](F)C(=O)N[C@@H]1COc1ncc(C#C[C@H]2CC[C@H](CN(C)CCCOCCNc3cccc4c3C(=O)N(C3CCC(=O)NC3=O)C4=O)CC2)c2cc(C(N)=O)c(OC)cc12 (stereo partly drawn) [I-387] | > 7.30 | 100 to 1000 |  |  |  | 
24 | CN(Cc1ccc(CCNc2cccc3c2C(=O)N(C2CCC(=O)NC2=O)C3=O)cc1)C[C@H]1CC[C@H](n2cc(NC(=O)c3cnn4ccc(N5CCOCC5)nc34)c(C(F)F)n2)CC1 (stereo partly drawn) [I-325] | < 6.00 | 100 to 1000 |  | 10 to 100 |  | 
25 | CN(CCc1ccc(CNc2cccc3c2C(=O)N(C2CCC(=O)N(C)C2=O)C3=O)cc1)C[C@H]1CC[C@H](n2cc(NC(=O)c3cnn4ccc(N5C[C@H]6CC5CO6)nc34)c(C(F)F)n2)CC1 (stereo partly drawn) [I-452] | < 6.00 |  | 100 to 1000 |  | > 1000 | 
26 | Cn1c(=O)n(C2CCC(=O)NC2=O)c2ccc(CCCCCCC(=O)N3CCN([C@H]4CC[C@H](Nc5ncnc6[nH]cc(C7CCOCC7)c56)CC4)CC3)cc21 (stereo partly drawn) [I-22] | 6.30 to 7.00 | > 1000 |  | > 1000 |  | 
27 | CN(C[C@H]1CC[C@H](n2cc(NC(=O)c3coc(-c4ccnc(NCC5CC5)c4)n3)c(C(F)F)n2)CC1)C1CCN(Cc2cccc3c2C(=O)N(C2CCC(=O)NC2=O)C3=O)CC1 (stereo partly drawn) [I-169] | < 6.00 | < 10 |  |  |  | 
28 | O=C1CCC(N2Cc3c(OCc4ccc(CN5CCN(C[C@H]6CC[C@H](n7cc(NC(=O)c8coc(-c9ccnc(NCC%10CC%10)c9)n8)c(C(F)F)n7)CC6)CC5)cc4)cccc3C2=O)C(=O)N1 (stereo partly drawn) [I-379] | 6.30 to 7.00 | > 1000 |  | > 1000 |  | 
29 | N#CCc1ccc2c(NC3CCC(N4CCN(C(=O)COCCOCCOCCNc5cccc6c5C(=O)N(C5CCC(=O)NC5=O)C6=O)CC4)CC3)ncnc2c1 (stereo not drawn) [I-51] | < 6.00 | > 1000 |  |  |  | 
30 | Cn1c(=O)n(C2CCC(=O)NC2=O)c2ccc(CCCOC3CCN(C[C@H]4CC[C@H](n5cc(NC(=O)c6coc(-c7ccnc(NCC8CC8)c7)n6)c(C(F)F)n5)CC4)CC3)cc21 (stereo partly drawn) [I-118] | < 6.00 | < 10 |  |  |  | 
